Activity calls are given as the source filed them. No cut-off for these calls is given here.
Tests used:
[1] = target: T1, Inhibitor of nuclear factor kappa-B kinase subunit beta (Homo sapiens) (UniProt O14920); test: Activity at IKKbeta (unknown origin)
T1 sequence (whole entry): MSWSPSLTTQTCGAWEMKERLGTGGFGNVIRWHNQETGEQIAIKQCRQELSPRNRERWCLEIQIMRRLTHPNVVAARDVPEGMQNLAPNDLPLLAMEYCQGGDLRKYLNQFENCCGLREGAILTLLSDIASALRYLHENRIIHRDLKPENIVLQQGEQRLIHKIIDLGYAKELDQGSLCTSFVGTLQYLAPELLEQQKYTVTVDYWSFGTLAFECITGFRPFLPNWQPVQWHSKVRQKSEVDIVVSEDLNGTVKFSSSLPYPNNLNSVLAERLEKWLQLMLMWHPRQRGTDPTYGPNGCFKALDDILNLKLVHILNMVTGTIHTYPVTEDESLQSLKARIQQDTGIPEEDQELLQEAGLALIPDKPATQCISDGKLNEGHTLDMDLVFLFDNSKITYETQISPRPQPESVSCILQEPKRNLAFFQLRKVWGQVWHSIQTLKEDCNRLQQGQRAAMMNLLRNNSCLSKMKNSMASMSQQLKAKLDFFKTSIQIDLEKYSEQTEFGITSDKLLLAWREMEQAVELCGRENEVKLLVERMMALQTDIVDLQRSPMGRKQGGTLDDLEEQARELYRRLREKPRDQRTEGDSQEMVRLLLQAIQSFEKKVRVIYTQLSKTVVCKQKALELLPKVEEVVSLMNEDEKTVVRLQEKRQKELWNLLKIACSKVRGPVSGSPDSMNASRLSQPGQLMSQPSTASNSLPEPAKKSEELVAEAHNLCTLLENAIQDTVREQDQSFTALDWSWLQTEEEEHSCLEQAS

Mus musculus [2] = test: Upregulation of long chain acyl CoA dehydrogenase gene expression in C57BL/6J mouse muscles at 15 to 150 mg/kg, po; assay type: functional, organism-based; conditions: Muscle tissue
[3] = target: Glycogen synthase kinase-3 beta (Homo sapiens) (UniProt P49841); test: Activity at GSK3beta (unknown origin)
Chain of Glycogen synthase kinase-3 beta (Homo sapiens) (P49841 whole entry, looked up): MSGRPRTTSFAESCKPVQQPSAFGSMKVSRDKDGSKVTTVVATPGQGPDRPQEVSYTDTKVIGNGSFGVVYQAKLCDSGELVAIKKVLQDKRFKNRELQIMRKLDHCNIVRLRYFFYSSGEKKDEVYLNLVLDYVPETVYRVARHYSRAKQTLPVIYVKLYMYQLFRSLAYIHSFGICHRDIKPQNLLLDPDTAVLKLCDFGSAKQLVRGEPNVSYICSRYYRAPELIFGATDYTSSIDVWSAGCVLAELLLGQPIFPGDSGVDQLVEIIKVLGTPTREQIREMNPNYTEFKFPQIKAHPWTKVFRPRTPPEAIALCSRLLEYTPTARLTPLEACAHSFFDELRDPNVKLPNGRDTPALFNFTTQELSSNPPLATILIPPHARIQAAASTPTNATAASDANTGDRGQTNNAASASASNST

Mus musculus [4] = test: Upregulation of COX5B gene expression in C57BL/6J mouse muscles at 15 to 150 mg/kg, po; assay type: functional, organism-based; conditions: Muscle tissue
[5] = target: T2, Aurora kinase A (Homo sapiens) (UniProt O14965); test: Activity at Aurora A (unknown origin)
T2 sequence (whole entry): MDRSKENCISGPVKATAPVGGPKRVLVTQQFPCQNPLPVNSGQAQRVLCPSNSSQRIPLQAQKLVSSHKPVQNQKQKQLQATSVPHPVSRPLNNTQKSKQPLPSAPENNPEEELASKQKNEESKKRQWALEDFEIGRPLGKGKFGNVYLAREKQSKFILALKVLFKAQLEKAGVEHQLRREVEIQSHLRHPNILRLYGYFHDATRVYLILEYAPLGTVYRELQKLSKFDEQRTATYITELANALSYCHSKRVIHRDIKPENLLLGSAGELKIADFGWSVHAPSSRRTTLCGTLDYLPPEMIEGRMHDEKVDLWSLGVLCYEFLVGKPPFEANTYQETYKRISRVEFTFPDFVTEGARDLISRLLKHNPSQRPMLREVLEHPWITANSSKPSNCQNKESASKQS

Cytochrome P450 2C19 = Cytochrome P450 2C19 (Homo sapiens, UniProt P33261); test: Inhibition of CYP2C19 (unknown origin); assay type: ADME
Chain of Cytochrome P450 2C19 (P33261 whole entry): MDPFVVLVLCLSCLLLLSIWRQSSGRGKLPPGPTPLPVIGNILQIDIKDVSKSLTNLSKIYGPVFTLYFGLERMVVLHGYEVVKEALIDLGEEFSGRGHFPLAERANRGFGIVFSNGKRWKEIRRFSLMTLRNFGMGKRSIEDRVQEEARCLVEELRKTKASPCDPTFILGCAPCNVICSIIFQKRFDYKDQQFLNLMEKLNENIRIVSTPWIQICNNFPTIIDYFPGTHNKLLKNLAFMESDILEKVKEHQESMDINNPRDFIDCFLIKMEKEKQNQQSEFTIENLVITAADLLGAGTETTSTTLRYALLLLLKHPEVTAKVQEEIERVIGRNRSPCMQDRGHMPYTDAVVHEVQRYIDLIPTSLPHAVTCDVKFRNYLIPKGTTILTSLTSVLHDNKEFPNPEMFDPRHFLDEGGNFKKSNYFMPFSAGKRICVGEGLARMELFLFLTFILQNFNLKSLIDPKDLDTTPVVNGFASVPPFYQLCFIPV

Mus musculus [6] = test: Antidiabetic activity in diet-induced obese C57BL/6J mouse assessed as reduction in plasma triglyceride at 15 mg/kg, po qd for 4 weeks (reference value: 0.62 +/- 0.02 mM); assay type: functional

`O=C(O)c1cccc(CN2C(=O)/C(=C(\c3ccccc3)c3ccc(Cl)cc3)c3ccccc32)c1` was tested, and the Activity [1] was “inactive”, the Activity (Mus musculus [2]) was “Active” and the Activity [3] was “inactive”. For the same compound, the Activity (Mus musculus [4]) was “Active”, the Activity [5] was “inactive” and the “inhibition (INH)” value (Cytochrome P450 2C19) was “Not Active”. The Activity (Mus musculus [6]) was 0.52 mM.
